# From US20250085273A1, “NOVEL RAPID DRUG DISCOVERY FOR SEPSIS AND AGENTS FOR USE AS SEPSIS THERAPY” (priority 2023, published 2025)
# Like-named read-outs stand apart in the source and are kept apart here.
# Columns and labels:
# human recombinant 5-HT2A = human recombinant 5-HT2A (Homo sapiens, UniProt P28223); settings: cited from earlier work
# [1] = test system: 5-dpf zebrafish larvae challenged with P. aeruginosa LPS 60 μg/mL; assay type: in vivo, Danio rerio; settings: compound 10 μM; for 5 dpf Embryos Percent Rescue (Mort + Tail Edema): 5-dpf larvae
# [2] = test system: 3-dpf Zebrafish Embryos Challenged with LPS (P. aeruginosa 60 μg/mL); assay type: in vivo, Danio rerio; settings: P. aeruginosa LPS 60 μg/mL, compound 10 μM; for Percent Rescue (Mort + Tail Edema): 3-dpf embryos, n=16; for Percent Rescue (Mort + Tail Edema) / rescue of tail edema and mortality (sepsis rescue rate) at 3-dpf: 24 hours; for 3 dpf Embryos Percent Rescue (Mort + Tail Edema): initial 3-dpf screen shown for reference
# Procedure, shortened: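 3-dpf PTU-treated AB zebrafish embryos exposed to 60 μg/mL P. aeruginosa LPS plus 10 μM compound (final) at 28.5 °C, n=16 per compound. Tail edema and mortality scored at 6 and 24 h post exposure; rescue judged against LPS-only controls at 24 h.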
# [3] = test system: larval zebrafish locomotor behavior; assay type: in vivo
# Text: This assay is a modified version of the larval zebrafish light dark transition assay with an added UV light (wavelength=295 nm) phase to capture any compound specific neurological effects to UV light. (Basnet et al., 2019, Kokel et al., 2013, Peng et al., 2016). The light period assesses deviations from normal locomotor behavior while the rapid transition to dark provides a measure of stress response by identifying any deviations from the normal heightened locomotor activity caused by the transition to dark. The neurobehavioral assay used a custom trial control script created by Noldus Ethovision XT 15, and it was executed in a Noldus DanioVision system. Zebrafish larvae in microplates were allowed to habituate in the DanioVision system for 5 minutes under white light conditions prior to the start of the test. The neurobehavioral assay consisted of three phases: a 3-minute light phase (white light), a 3-minute dark phase (no light) and a 5 second UV phase (UV light only). The Danio Vision system captured larval zebrafish movement throughout this assay at 30 frames per second.
# (§1) LC50s for the LPS tests were determined using the Trimmed Spearmen-Karber method (Hamilton et al., 1977). The tail edema and mortality data from the initial and confirmatory drug testing was analyzed using GraphPad Prism 9 using Fisher's Exact Test. Each drug treatment group was compared pairwise with the on-board positive control group on each test plate. Statistical significance was determined with values of p≤0.05. Neurological behavioral testing data was analyzed by Ethovision software that produced an activity analysis profile per frame for each well of the 96 well plates. Any dead embryos were removed from the data set, and the remaining data set was imported into Excel. The offset function in Excel was used to average the percentage of pixel change per 0.1 s for each plate. […] The behavioral data was then statistically analyzed by drug per phase using a 2 tailed t-test to determine statistical significance p≤0.01.
# human recombinant 5-HT2C = molecular target: T1, human recombinant 5-HT2C (Homo sapiens, UniProt P28335); settings: cited from earlier work
# T1 sequence (P28335 33-458): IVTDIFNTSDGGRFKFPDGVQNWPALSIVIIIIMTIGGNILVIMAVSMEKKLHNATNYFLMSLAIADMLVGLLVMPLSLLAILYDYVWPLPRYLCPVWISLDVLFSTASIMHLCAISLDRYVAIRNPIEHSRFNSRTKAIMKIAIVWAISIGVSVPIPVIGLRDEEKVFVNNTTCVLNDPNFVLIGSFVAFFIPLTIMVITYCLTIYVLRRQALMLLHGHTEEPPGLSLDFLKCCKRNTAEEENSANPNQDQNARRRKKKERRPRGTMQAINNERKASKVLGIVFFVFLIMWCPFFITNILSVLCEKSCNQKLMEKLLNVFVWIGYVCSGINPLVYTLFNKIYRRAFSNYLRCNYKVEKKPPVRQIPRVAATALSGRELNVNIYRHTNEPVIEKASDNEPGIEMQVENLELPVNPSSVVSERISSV
# 5-HT2B = 5-HT2B (Homo sapiens, UniProt P41595); settings: cited from earlier work
# [4] = test system: 5-dpf zebrafish challenged with K. Pneumoniae LPS (45 μg/mL); assay: Challenge with K. Pneumoniae LPS (45 μg/mL), 5-dpf zebrafish; assay type: in vivo, Danio rerio
# Method: These tests followed the same methods described in the 5-dpf zebrafish confirmatory testing, but K. Pneumoniae LPS (45 μg/mL final in well concentration) was used instead of P. aeruginosa LPS.
# [5] = test system: zebrafish (4 dpf pre-treated, LPS exposure at 5-dpf) challenged with P. aeruginosa LPS 60 μg/mL; assay type: in vivo, Danio rerio; settings: for Pre-Treatment Rescue (n = 16): 24-hour drug pre-treatment; for Pre-Treatment Rescue (n = 16) / No Pre-Treatment Rescue (n = 16): P. aeruginosa LPS 60 μg/mL; for No Pre-Treatment Rescue (n = 16): no 24-hour drug pre-treatment; for 24 hour Tail Edema, No-Drug Pretreatment / 24 Hour Mortality and Tail Edema, Drug Pretreatment / 24 Hour Mortality, Drug Pretreatment / 24 hour Tail Edema, Drug Pretreatment / 24 Hour Mortality and Tail Edema, No-Drug Pretreatment / 24 Hour Mortality, No Drug Pretreatment: number of n = 16 fish; for 24 hour Tail Edema, No-Drug Pretreatment: 10 μM drug with LPS 60 μg/mL; for 24 hour Tail Edema, No-Drug Pretreatment / 24 Hour Mortality and Tail Edema, No-Drug Pretreatment / 24 Hour Mortality, No Drug Pretreatment: no 24-hour pre-treatment; for 24 Hour Mortality and Tail Edema, Drug Pretreatment / 24 Hour Mortality, Drug Pretreatment: 24-hour 10 μM drug pre-treatment; for 24 hour Tail Edema, Drug Pretreatment: 24-hour 10 μM drug pre-treatment before LPS 60 μg/mL
# Procedure, shortened: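 PTU-treated 4 dpf zebrafish embryos received a 24-hour drug pre-treatment at 28.5 °C, alongside an untreated parallel group, before challenge at 5 dpf with P. aeruginosa LPS at 60 μg/mL. Tail edema and mortality were scored at 6 and 24 h post exposure, followed by a neurobehavioral test.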
# [6] = test system: zebrafish exposed to P. aeruginosa LPS; assay: Model compound testing in the optimized zebrafish sepsis model (varying LPS dose ranges); assay type: in vivo, Danio rerio; settings: for complete rescue of exposed fish: 60 μg/mL LPS challenge concentration; for mortality at 24 hours post exposure: 24 hours post LPS exposure
# Method: Three sources of LPS were evaluated: E. coli 0111:B4, P. aeruginosa Sigma L9143, and K. pneumoniae. E. coli 0111:B4 LPS was selected as the reference LPS used by Philip et al. (2017). P. aeruginosa LPS is commonly associated with infections in hospitals, accounting for an estimated 32,600 cases and resulting in an estimated 2,700 deaths in 2017 (CDC Report 2019). P. aeruginosa infections are also a common cause of sepsis in both patients with severe burns and immunocompromised patients. K. pneumoniae LPS has military relevance related to battlefield injury infections (Kiley et al., 2021). Initial range finding LC50 tests with larval zebrafish were conducted for each LPS strain at both 3-dpf and 5-dpf. […] (E. coli 0111:B4 was also tested at higher concentrations, 400, 800, and 1000 μg/mL due a lack of toxicity within the initial dose range.) Well plates were then covered with parafilm and placed into an incubator at 28.5° C. for 24 hours. After 6 and 24 hours, the plates were removed and scored for mortality, tail edema, and ROS production. The tail edema endpoint evaluates vascular leakage from caudal fin in response to LPS exposure (FIG. 2). ROS production was determined as described by Philip et al. (2017) by adding 2,7-dichloroflurescein diacetate (100 μM) to the wells containing the zebrafish larvae and incubating them in a 100% dark photoperiod incubator at 28.5° C. for one hour. Florescent images of the incubated zebrafish were then captured with a Keyence BZ-X710 fluorescent microscope using 10× objective with a GFP filter and fixed 1/15 second exposure for all imaging. […] Results from the LPS toxicity testing and endpoint screening were used to develop the optimized testing procedure through evaluation in selected model compounds, as described in the next section and in the results.
# The optimized zebrafish sepsis model was evaluated against compounds previously shown to have efficacy in previous zebrafish sepsis models: fasudil, hydrocortisone, dexamethasone, and fisetin. Fasudil, an anti-vascular leakage compound (inhibitor of the RhoA/Rho-kinase pathway) was shown by Philip et al. (2017) to rescue zebrafish from LPS-induced mortality, ROS production, and tail fin edema. Fasudil also rescued LPS-induced vascular leakage in murine models of experimental sepsis (Li et al., 2010) and reduced acute lung injury in septic rats through inhibition of the Rho/ROCK signaling pathway (Wang et al., 2018). […] Endpoints evaluated with model compounds included mortality, tail edema, and ROS at 6- and 24-hours post exposure to varying dose ranges of LPS.
# as §1, with “Excel.” for “Excel. The offset function in Excel was used to average the percentage of pixel change per 0.1 s for each plate.”
# D2 receptor = D2 receptor (Homo sapiens, UniProt P14416); settings: read-out: IC50 for D2 receptor; cited from earlier work
# [7] = molecular target: hERG potassium ion channel current (IhERG) (Homo sapiens, UniProt Q12809); settings: cited from earlier work
# [8] = test system: larval zebrafish exposed to Pseudomonas aeruginosa 60 μg/mL lipopolysaccharide (LPS); assay: Zebrafish endotoxicity/sepsis model drug screening, statements without larval stage; assay type: in vivo, Danio rerio
# Text: To identify potential sepsis drug candidates, an optimized larval zebrafish model of endotoxicity/sepsis was used to screen commercial libraries of U.S. Food and Drug Administration (FDA)-approved drugs and other active pharmaceutical ingredients (API) known to affect pathways implicated in the initiation and progression of sepsis in humans (i.e., inflammation, mitochondrial dysfunction, coagulation, and apoptosis). In this model, endotoxicity was induced in 3- and 5-day post fertilization larval zebrafish (characterized by mortality and tail fin edema (vascular leakage)) by immersion exposure to Pseudomonas aeruginosa 60 μg/mL lipopolysaccharide (LPS) for 24 hours, then screened for the rescue potential of 644 selected drugs simultaneously with LPS at 10 μM. After LPS exposure, a neurobehavioral assay (light-dark test) was performed to further evaluate rescue from endotoxicity and to determine possible off-target drug side effects.
# Chain of D2 receptor (P14416 whole entry): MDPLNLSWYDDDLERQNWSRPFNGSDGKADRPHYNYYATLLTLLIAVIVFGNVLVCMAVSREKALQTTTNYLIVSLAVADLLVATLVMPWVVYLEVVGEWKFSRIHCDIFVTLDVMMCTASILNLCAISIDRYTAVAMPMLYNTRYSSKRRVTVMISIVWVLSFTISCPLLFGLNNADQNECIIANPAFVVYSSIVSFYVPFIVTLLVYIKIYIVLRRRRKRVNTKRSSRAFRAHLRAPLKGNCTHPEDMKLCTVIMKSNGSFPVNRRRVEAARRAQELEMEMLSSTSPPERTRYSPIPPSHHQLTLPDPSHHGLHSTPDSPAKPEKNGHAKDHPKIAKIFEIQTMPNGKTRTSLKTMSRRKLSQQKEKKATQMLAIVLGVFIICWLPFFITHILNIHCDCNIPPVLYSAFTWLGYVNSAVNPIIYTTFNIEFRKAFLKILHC
# Chain of 5-HT2B (P41595 whole entry): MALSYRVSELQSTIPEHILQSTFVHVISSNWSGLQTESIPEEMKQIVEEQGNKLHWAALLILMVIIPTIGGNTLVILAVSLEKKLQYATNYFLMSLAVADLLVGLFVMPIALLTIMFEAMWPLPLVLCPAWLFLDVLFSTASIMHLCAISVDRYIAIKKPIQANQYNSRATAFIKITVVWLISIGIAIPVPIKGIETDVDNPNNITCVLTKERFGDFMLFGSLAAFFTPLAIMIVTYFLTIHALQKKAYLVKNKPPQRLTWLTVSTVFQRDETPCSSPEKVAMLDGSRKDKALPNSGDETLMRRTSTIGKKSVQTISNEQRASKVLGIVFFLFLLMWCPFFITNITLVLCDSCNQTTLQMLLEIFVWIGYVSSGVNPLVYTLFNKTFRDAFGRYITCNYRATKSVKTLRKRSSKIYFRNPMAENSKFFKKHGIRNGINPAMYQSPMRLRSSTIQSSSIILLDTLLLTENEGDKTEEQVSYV
# Chain of hERG potassium ion channel current (IhERG) (Q12809 whole entry): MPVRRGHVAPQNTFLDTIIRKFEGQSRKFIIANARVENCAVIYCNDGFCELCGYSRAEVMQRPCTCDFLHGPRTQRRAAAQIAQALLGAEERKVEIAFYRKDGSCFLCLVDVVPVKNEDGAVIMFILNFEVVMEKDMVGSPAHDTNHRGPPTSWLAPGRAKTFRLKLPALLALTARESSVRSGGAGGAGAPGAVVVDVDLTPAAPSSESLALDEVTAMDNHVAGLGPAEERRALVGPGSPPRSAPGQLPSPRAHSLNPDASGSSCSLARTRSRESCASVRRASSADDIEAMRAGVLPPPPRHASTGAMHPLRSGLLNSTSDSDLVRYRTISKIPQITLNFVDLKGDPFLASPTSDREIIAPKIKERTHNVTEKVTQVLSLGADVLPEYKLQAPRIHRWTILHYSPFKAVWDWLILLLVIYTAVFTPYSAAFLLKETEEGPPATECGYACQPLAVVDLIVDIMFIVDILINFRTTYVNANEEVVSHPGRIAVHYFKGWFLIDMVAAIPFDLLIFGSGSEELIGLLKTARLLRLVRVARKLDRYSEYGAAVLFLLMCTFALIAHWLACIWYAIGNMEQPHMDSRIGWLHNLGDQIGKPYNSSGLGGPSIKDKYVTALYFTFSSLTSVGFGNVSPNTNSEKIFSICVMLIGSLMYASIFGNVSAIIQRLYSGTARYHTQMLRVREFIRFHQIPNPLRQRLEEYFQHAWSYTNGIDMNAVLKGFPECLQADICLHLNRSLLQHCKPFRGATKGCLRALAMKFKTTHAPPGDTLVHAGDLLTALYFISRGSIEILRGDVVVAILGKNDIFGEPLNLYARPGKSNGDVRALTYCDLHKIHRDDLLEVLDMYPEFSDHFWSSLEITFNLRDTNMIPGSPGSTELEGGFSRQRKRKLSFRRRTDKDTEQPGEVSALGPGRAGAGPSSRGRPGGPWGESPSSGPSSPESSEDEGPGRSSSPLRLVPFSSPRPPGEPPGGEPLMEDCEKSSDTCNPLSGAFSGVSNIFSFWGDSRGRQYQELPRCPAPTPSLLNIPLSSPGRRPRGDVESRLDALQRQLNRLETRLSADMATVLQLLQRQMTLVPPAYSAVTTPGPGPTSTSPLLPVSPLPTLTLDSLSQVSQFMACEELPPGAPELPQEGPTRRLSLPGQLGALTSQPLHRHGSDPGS
# Chain of human recombinant 5-HT2A (P28223 whole entry): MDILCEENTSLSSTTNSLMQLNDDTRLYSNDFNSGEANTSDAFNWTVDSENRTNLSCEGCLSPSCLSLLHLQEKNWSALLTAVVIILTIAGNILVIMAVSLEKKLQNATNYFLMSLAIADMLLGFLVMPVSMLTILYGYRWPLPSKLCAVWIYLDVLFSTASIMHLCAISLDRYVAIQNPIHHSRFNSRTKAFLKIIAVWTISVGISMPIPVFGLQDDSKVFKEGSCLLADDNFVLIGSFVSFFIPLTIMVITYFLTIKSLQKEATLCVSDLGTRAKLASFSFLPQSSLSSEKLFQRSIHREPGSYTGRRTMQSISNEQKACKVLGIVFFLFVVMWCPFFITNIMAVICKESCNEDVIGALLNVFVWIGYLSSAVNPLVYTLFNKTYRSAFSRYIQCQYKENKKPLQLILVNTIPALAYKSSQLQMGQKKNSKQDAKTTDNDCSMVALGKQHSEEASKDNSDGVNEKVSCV
Structure (SMILES),5 dpf Embryos Percent Rescue (Mort + Tail Edema) [1] [%],rescue of tail edema and mortality (sepsis rescue rate) at 5-dpf [1] [%],Percent Rescue (Mort + Tail Edema) [2] [%],rescue of tail edema and mortality (sepsis rescue rate) at 3-dpf [2] [%],3 dpf Embryos Percent Rescue (Mort + Tail Edema) [2] [%],rescue of tail edema and mortality [4] [%],Pre-Treatment Rescue (n = 16) [5] [%],No Pre-Treatment Rescue (n = 16) [5] [%],"24 hour Tail Edema, No-Drug Pretreatment [5] [fish]","24 Hour Mortality and Tail Edema, Drug Pretreatment [5] [fish]","24 Hour Mortality, Drug Pretreatment [5] [fish]","24 hour Tail Edema, Drug Pretreatment [5] [fish]","24 Hour Mortality and Tail Edema, No-Drug Pretreatment [5] [fish]","24 Hour Mortality, No Drug Pretreatment [5] [fish]",complete rescue of exposed fish [6],mortality at 24 hours post exposure [6],other results
"CCCCCNC(=N)N/N=C/c1c[nH]c2ccc(OC)cc12 [Compound 400, Tegaserod (maleate)]",100,100,100,100,100,100,100,88,1,0,0,0,2,1,–,–,"pKi 5-HT2A (human recombinant 5-HT2A): 7.5; light/dark neurobehavioral testing, difference from negative controls ([3]; after LPS exposure, with and without drug pre-treatment): little to no difference from negative controls; Post Test Behavioral Assay ([3]; after pre-treatment test LPS exposure): Normal; pKi 5-HT2C (human recombinant 5-HT2C): 7.0; pKi 5-HT2B (5-HT2B): 8.4"
O=S(=O)(c1cccc2cnccc12)N1CCCNCC1 [Fasudil],–,–,–,–,–,–,–,–,–,–,–,–,–,–,Neither compound showed complete rescue,statistically significant (p=0.0233) reduction in mortality,–
CN1CCN(CCCN2c3ccccc3Sc3ccc(C(F)(F)F)cc32)CC1 [Trifluoperazine],–,–,–,–,–,–,–,–,–,–,–,–,–,–,–,–,IC50 (D2 receptor): 0.0012 µM
"O=C(c1ccc(F)cc1)C1CCN(CCn2c(=O)[nH]c3ccccc3c2=O)CC1 [Compound 88, Ketanserin]",81,81,100,100,100,88,100,100,0,0,0,0,0,0,–,–,IC50 [7]: 0.11 µM; rescue of tail edema and mortality (sepsis rescue rate) at 5-dpf ([1]; listed as ketanserin): 100%
C[C@]12CCC(=O)C=C1CC[C@@H]1[C@@H]2[C@@H](O)C[C@@]2(C)[C@H]1CC[C@]2(O)C(=O)CO [hydrocortisone],–,–,–,–,–,–,–,–,–,–,–,–,–,–,–,increased mortality over no treatment,rescue at 6-hour exposure time point ([8]; 6-hour exposure time point): showed rescue early; rescue by 24 hours post exposure ([8]; 24 hours post exposure): failed to show any level of rescue; efficacy (mortality) at 6 hours ([6]; 6 hours post LPS exposure): some efficacy noted
O=c1c(O)c(-c2ccc(O)c(O)c2)oc2cc(O)ccc12 [Fisetin],–,–,–,–,–,–,–,–,–,–,–,–,–,–,Neither compound showed complete rescue,–,–
